In ChEMBL document CHEMBL3045327, “Synthesis, cytotoxic evaluation, and in silico studies of substituted N-alkylbromo-benzothiazoles” (Med Chem Res, 2013):

How the values were obtained:
Assay type in all cases: functional, cell-based
Caco-2 = test: Cytotoxicity against Homo sapiens (human) Caco2 cells after 48 hr by SRB assay; settings: Caco-2, 48 h
THP-1 = test: Cytotoxicity against Homo sapiens (human) THP1 cells after 48 hr by SRB assay; settings: for IC50: THP-1, 48 h
A549 = test: Cytotoxicity against Homo sapiens (human) A549 cells after 48 hr by SRB assay; settings: for IC50: A549, 48 h
PC-3 = test: Cytotoxicity against Homo sapiens (human) PC3 cells after 48 hr by SRB assay; settings: for IC50: PC-3, 48 h

Row | SMILES | IC50 (Caco-2) | Activity (THP-1) | IC50 (THP-1) | Activity (A549) | IC50 (A549) | Activity (PC-3) | IC50 (PC-3)
1 | Clc1ccc2nc(NCCBr)sc2c1 | > 100 µM | Dose-dependent effect | 97.8 µM | Dose-dependent effect | > 100 µM | Dose-dependent effect | 99 µM
2 | Cc1ccc2nc(NCCCBr)sc2c1 | 81.6 µM | Dose-dependent effect | 30.3 µM | Dose-dependent effect | > 100 µM | Dose-dependent effect | 53.3 µM
3 | Fc1ccc2nc(NCCBr)sc2c1 | 16.8 µM | Dose-dependent effect | 1 µM | Dose-dependent effect | 67.6 µM | Dose-dependent effect | 9.9 µM
4 | Fc1ccc2nc(NCCCBr)sc2c1 | 93.7 µM | Dose-dependent effect | 0.9 µM | Dose-dependent effect | > 100 µM | Dose-dependent effect | 2.5 µM
5 | CC(=O)O[C@H]1C(=O)[C@@]2(C)[C@H]([C@H](OC(=O)c3ccccc3)[C@]3(O)C[C@H](OC(=O)[C@H](O)[C@@H](NC(=O)c4ccccc4)c4ccccc4)C(C)=C1C3(C)C)[C@]1(OC(C)=O)CO[C@@H]1C[C@@H]2O |  | Dose-dependent effect |  | Dose-dependent effect |  | Dose-dependent effect | 
6 | Clc1cccc2sc(NCCCBr)nc12 | > 100 µM | Dose-dependent effect | 1.72 µM | Dose-dependent effect | > 100 µM | Dose-dependent effect | 3.1 µM
7 | Clc1cc2nc(NCCBr)sc2cc1Cl | 8.4 µM | Dose-dependent effect | 8.46 µM | Dose-dependent effect | 85.5 µM | Dose-dependent effect | 24 µM
8 | Clc1cc2nc(NCCCBr)sc2cc1Cl | 63 µM | Dose-dependent effect | 7 µM | Dose-dependent effect | > 100 µM | Dose-dependent effect | 28 µM
9 | O=c1[nH]cc(F)c(=O)[nH]1 [FLUOROURACIL] | 21 µM | Dose-dependent effect |  | Dose-dependent effect |  | Dose-dependent effect | 
10 | Clc1ccc2nc(NCCCBr)sc2c1 | 33 µM | Dose-dependent effect | 60 µM | Dose-dependent effect | > 100 µM | Dose-dependent effect | 62.8 µM
11 | COc1ccc2nc(NCCCBr)sc2c1 | 9.9 µM | Dose-dependent effect | 3 µM | Dose-dependent effect | 89.9 µM | Dose-dependent effect | 0.6 µM
12 | Clc1cccc2sc(NCCBr)nc12 | 26.9 µM | Dose-dependent effect | 110 µM | Dose-dependent effect | > 100 µM | Dose-dependent effect | 110 µM
13 | CO[C@@]12[C@H](COC(N)=O)C3=C(C(=O)C(C)=C(N)C3=O)N1C[C@@H]1N[C@@H]12 [MITOMYCIN] |  | Dose-dependent effect | 1.5 µM | Dose-dependent effect | 0.4 µM | Dose-dependent effect | 
14 | COc1ccc2nc(NCCBr)sc2c1 | 47.9 µM | Dose-dependent effect | 110 µM | Dose-dependent effect | > 100 µM | Dose-dependent effect | 100 µM
15 | Cc1ccc2nc(NCCBr)sc2c1 | 67.7 µM | Dose-dependent effect | 39.9 µM | Dose-dependent effect | > 100 µM | Dose-dependent effect | 40.9 µM
